# Calls of active or inactive are those of the source.
# How the values were obtained:
# [1] = molecular target: T1, Scavenger receptor class B member 1 (Mus musculus, UniProt Q61009); test: inhibitors of SR-BI dependent HDL uptake, dose response, ldlA[mSR-BI] CHO cells, fluorescence plate reader, dry powder, set 9 (AID 623880); assay type: functional, cell-based
# T1 sequence (Q61009 whole entry): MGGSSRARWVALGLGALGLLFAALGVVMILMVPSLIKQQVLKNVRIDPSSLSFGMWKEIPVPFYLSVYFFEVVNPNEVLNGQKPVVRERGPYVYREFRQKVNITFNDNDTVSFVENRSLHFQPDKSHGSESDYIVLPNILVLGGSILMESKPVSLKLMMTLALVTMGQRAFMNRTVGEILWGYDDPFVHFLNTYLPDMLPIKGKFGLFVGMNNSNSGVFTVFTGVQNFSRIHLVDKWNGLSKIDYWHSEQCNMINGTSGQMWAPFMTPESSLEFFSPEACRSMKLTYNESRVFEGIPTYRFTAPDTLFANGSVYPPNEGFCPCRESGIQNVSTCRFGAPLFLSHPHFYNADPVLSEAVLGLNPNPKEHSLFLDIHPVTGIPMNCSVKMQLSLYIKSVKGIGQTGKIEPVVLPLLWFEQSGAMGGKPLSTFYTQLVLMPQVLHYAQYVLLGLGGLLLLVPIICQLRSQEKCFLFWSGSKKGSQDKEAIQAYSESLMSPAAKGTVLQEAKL
# [2] = molecular target: T1, Scavenger receptor class B member 1; test: inhibitors of SR-BI-mediated HDL uptake, dose response, cell-based, ldlA[mSR-BI] CHO, DiI fluorescence, dry powder, set 10 (AID 624029); assay type: functional
# [3] = HEp-2 cell cytotoxicity, dose response, cytotoxicity control for RSV inhibitor project, HTS (AID 2410); assay type: functional; settings: human respiratory syncytial virus
# cells = assay type: functional, cell-based
# [4] = molecular target: T2, Nuclear receptor subfamily 0 group B member 1 (Homo sapiens, UniProt P51843); assay type: functional, cell-based;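 also: HEK293T cells transfected with SF-1 and DAX-1 plus StAR promoter luciferase reporter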
# T2 sequence (P51843 whole entry): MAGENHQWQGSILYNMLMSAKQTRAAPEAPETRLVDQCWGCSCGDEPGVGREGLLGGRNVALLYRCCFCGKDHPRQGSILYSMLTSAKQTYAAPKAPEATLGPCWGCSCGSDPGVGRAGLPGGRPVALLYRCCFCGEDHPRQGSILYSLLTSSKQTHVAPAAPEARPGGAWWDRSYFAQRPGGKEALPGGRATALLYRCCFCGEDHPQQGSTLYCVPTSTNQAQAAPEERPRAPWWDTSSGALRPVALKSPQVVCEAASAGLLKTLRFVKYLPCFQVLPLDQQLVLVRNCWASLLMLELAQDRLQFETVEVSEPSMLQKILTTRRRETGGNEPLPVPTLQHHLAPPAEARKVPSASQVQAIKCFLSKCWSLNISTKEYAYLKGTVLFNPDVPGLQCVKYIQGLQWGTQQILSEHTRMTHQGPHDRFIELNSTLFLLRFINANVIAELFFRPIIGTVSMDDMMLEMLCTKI
# H4 = test: Luminescence Cell-Based Dose Response HTS to Identify Activators of 5'UTR Stem-Loop Driven Prion Protein mRNA Translation in H4 Neuroglioblastoma Cells. [Related pubchem assays: 1829 (Project Summary), 1814 (Primary HTS)]; assay type: functional; settings: Homo sapiens
# [5] = molecular target: SWI/SNF-related matrix-associated actin-dependent regulator of chromatin subfamily A member 2 (Homo sapiens, UniProt P51531); test: Luminescence-based cell-based high throughput dose response assay to identify activators of the function of SWI/SNF related, matrix associated, actin dependent regulator of chromatin, subfamily a, member 2 (SMARCA2, BRM).; assay type: functional
# Sequence of SWI/SNF-related matrix-associated actin-dependent regulator of chromatin subfamily A member 2 (P51531 whole entry): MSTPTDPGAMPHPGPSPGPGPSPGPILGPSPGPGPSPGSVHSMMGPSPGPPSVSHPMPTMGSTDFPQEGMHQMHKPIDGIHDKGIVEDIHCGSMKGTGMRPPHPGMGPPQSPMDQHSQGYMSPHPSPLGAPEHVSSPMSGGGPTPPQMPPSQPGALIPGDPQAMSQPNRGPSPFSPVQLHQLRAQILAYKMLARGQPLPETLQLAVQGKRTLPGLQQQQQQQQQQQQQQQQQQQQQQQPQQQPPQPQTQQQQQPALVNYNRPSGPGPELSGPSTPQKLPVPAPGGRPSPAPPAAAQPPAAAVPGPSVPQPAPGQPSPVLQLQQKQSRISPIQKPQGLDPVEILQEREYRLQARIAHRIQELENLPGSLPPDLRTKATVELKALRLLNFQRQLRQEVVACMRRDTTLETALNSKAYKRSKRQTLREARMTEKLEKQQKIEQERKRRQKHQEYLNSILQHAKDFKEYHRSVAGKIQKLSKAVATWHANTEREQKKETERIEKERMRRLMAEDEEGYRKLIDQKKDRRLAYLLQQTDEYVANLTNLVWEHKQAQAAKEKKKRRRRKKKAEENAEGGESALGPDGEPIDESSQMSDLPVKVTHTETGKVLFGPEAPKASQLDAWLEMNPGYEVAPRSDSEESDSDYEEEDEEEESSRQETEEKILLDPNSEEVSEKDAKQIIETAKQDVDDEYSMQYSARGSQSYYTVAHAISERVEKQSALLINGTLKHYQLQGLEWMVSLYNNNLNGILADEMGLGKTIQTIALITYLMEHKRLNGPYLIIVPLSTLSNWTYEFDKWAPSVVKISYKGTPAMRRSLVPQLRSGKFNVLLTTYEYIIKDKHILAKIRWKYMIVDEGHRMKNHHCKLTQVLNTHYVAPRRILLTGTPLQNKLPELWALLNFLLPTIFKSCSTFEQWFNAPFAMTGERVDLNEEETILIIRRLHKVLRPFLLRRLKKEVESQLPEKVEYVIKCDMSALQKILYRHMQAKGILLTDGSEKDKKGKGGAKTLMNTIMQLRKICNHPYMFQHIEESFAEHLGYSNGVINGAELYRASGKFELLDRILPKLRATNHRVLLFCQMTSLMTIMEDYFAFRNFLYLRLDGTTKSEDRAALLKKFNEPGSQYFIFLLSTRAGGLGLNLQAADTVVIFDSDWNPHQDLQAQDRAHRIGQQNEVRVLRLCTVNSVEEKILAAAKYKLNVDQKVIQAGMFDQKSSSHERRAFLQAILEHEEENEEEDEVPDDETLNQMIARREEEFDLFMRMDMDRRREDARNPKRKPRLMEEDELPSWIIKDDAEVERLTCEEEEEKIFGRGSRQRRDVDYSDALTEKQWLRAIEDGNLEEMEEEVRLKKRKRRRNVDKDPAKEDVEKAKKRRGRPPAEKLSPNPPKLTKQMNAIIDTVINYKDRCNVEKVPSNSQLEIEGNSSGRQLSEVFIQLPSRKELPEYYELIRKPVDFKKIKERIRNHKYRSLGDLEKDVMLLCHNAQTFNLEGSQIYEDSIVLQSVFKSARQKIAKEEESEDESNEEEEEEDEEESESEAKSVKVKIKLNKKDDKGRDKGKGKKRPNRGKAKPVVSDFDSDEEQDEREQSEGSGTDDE
# [6] = Luminescence Cell-Based Dose Response HTS to Identify Activators of Luciferase Translation or Activity in H4 […] Cells. [Related pubchem assays: 1829 (Project Summary), 1814 (Primary HTS)]; assay type: functional
# [7] = Luminescence Cell-Based Dose Confirmation HTS to Identify Activators of 5'UTR Stem-Loop Driven Alpha-Synuclein mRNA Translation in H4 Neuroglioblastoma Cells. [Related pubchem assays: 1829 (Project Summary), 1814 (Primary HTS)]; assay type: functional
# [8] = Counterscreen for activators of the function of SWI/SNF related, matrix associated, actin dependent regulator of chromatin, subfamily a, member 2 (SMARCA2, BRM): Luminescence-based cell-based high throughput dose response assay to identify non-selective compounds using the VP16 reporter assay.; assay type: functional
# [9] = ARNT/TACC3 interaction disruptors, potency, confirmation, biochemical, AlphaScreen, cherry-picked samples (AID 651703); assay type: functional, Homo sapiens;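 also: His-tagged ARNT PAS-B domain paired with GST-TACC3 E629A dimer coactivator fragment; potency of inhibitors that break up the complex and lower AlphaScreen signal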
# [10] = inhibitors of firefly luciferase expression or activity, dose response, H4 neuroglioma cells, luminescence (AID 1990); assay type: functional, cell-based
# [11] = Luminescence Cell-Based Dose Response HTS to Identify Inhibitors of 5'UTR Stem-Loop Driven Prion Protein mRNA Translation in H4 Neuroglioblastoma Cells. [Related pubchem assays: 1827 (Project Summary), 1813 (Primary HTS)]; assay type: functional
# [12] = inhibitors of SNCA 5'UTR-driven reporter translation, confirmation, H4 neuroglioma cells, luminescence (AID 1988); assay type: functional, cell-based
# [13] = molecular target: Hepatocyte nuclear factor 4-alpha (Homo sapiens, UniProt P41235); assay type: functional, cell-based;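 also: biochemical luminescence-based dose-response counterscreen measuring inhibition of HNF4 dimerization, run alongside a screen for blockers of ABHD5–perilipin-5 interaction; split luciferase complementation of HNF4 fusion proteins in cell lysate measuring dimerization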
# Sequence of Hepatocyte nuclear factor 4-alpha (P41235 whole entry, the tested form may be a part): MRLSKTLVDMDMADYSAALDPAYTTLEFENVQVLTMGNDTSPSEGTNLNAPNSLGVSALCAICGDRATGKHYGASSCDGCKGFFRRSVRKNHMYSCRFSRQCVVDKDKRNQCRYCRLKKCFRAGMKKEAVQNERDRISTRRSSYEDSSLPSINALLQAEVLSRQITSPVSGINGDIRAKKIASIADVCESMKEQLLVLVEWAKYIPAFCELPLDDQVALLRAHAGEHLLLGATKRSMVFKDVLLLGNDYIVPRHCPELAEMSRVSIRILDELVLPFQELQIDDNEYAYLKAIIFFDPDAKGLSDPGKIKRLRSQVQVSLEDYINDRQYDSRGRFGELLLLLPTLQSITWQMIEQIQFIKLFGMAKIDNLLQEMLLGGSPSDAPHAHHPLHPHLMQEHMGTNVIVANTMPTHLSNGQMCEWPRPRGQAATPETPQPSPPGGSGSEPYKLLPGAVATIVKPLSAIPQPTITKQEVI
# [14] = molecular target: Glucose-6-phosphate 1-dehydrogenase (Homo sapiens, UniProt P11413); test: human G6PD enzyme inhibitors, dose response, selectivity assay for P. falciparum G6PD inhibitor project, biochemical, fluorescence (AID 504792); assay type: functional
# Sequence of Glucose-6-phosphate 1-dehydrogenase (P11413 whole entry): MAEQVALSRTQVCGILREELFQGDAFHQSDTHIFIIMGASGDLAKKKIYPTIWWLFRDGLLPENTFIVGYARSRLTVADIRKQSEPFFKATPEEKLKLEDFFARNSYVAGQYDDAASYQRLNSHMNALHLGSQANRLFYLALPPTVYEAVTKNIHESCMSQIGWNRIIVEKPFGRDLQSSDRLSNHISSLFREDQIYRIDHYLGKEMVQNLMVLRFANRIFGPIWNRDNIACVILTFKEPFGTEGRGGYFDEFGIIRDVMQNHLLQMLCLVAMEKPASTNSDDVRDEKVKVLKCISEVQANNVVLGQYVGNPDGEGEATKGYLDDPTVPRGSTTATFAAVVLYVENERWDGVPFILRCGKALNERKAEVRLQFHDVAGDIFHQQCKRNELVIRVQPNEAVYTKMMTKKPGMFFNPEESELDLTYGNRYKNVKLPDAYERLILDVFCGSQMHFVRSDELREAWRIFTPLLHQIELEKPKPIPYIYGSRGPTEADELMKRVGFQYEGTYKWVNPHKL
# [15] = molecular target: T3, Mannose-6-phosphate isomerase (Homo sapiens, UniProt P34949); test: human PMI inhibitors, high substrate, primary screen, biochemical, fluorescence intensity, high mannose 6-phosphate (AID 1220)
# T3 sequence (P34949 whole entry): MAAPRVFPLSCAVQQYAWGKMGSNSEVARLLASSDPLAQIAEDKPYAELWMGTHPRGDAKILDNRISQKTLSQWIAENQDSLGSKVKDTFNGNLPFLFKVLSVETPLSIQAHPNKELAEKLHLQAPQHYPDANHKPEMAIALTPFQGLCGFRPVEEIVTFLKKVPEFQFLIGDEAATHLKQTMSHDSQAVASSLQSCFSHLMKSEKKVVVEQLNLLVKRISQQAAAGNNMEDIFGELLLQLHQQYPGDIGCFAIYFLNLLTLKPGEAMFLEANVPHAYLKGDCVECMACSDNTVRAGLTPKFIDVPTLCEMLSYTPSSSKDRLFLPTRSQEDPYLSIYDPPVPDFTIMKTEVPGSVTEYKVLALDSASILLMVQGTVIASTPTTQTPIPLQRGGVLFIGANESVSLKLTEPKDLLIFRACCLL
# [16] = molecular target: T4, Methionyl-tRNA synthetase, putative (Trypanosoma brucei brucei, UniProt Q38C91); assay type: functional, Trypanosoma brucei brucei strain 927/4 GUTat10.1
# T4 sequence (Q38C91 whole entry): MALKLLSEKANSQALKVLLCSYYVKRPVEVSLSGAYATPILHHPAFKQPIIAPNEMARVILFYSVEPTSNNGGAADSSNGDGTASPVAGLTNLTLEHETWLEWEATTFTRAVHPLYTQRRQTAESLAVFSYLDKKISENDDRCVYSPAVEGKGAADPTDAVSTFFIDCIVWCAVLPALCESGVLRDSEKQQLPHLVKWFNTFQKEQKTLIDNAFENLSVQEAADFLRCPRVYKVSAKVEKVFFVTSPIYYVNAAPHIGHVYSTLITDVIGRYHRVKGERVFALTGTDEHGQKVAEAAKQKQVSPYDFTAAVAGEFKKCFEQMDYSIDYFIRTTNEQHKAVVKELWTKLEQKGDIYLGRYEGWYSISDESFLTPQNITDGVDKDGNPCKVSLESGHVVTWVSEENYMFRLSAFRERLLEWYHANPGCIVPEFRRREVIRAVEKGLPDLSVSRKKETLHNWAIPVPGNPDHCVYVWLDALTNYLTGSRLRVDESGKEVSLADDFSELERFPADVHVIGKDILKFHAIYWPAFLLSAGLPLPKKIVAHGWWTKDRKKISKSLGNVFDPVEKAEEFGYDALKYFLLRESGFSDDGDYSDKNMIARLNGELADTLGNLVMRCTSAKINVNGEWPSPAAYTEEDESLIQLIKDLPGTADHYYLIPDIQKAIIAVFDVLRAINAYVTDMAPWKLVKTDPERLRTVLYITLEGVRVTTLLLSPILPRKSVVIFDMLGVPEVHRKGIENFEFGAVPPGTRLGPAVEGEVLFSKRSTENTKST
# [17] = molecular target: T4, Methionyl-tRNA synthetase, putative; assay type: functional, Trypanosoma brucei brucei strain 927/4 GUTat10.1; remark: listed apart in the source
# [18] = Counterscreen for inhibitors of Trypanosoma brucei methionyl tRNA synthetase (MetRS): Luminescence-based cell-based high throughput dose response assay to identify compounds that are cytotoxic to Jurkat human T lymphocyte cells.; assay type: functional
compound,measurement,setting,value
C[C@H](C(=O)NC1CCCC1)N(C(=O)Cn1nnc(-c2ccc3c(c2)OCO3)n1)C1CCCCC1,AC50,[1],0.015 µM (active)
same,AC50,[2],0.0121 µM (active)
Cn1ncc(Cl)c1C(=O)Nc1ccc2c(c1)CCC2,CC50,[3],41.5 µM (active)
same,IC50,cells,> 67.5 µM (inactive)
same,IC50,[4],> 67.5 µM (inactive)
O=C(CNS(=O)(=O)c1ccccc1)OCC(=O)c1ccc(OC(=O)c2ccccc2)cc1,EC50,H4,> 120 µM (not active)
same,EC50,[5],> 91.2 µM (inactive)
same,EC50,[6],11.7 µM (active)
same,EC50,[7],> 120 µM (not active)
same,EC50,[8],> 91.2 µM (inactive)
O=C(NCCCn1ccnc1)C(=O)NCC1OCCCN1S(=O)(=O)c1ccccc1 (stereo not given),AC50,[9],80 µM (active)
same,EC50,[10],> 120 µM (not active)
same,EC50,[11],17.5 µM (active)
same,EC50,[12],> 120 µM (not active)
CC1=CC(C)(C)Nc2ccc(OC(=O)CN3C(=O)c4cccc5cccc(c45)C3=O)cc21,IC50,[13],6.95 µM (active)
same,IC50,[14],64.2 µM (inactive)
same,IC50,[15],33 µM (active)
CCC[C@H]1CN(Cc2cccnc2)C(=O)[C@@H]1CC(=O)Nc1ccc(Br)cc1,IC50,[16],8.41 µM (active)
same,IC50,[17],3.49 µM (active)
same,IC50,[18],83.3 µM (inactive)

# — ChEMBL document CHEMBL1201862, “PubChem BioAssay data set” (2004)
